Converted amounts (≈) assume the structure as drawn.
Columns and labels:
[1] = tested on: S. aureus subsp. aureus (ATCC 25923); experiment: Minimal growth inhibitory concentration, S. aureus subsp. aureus; type: cell-based; conditions: Staphylococcus aureus, ATCC25923
Experimental: (§1) B. subtilis 168 and Staphylococcus spp. were grown in cation adjusted Mueller–Hinton broth (CAMHB; Becton, Dickinson and Company) at 37 °C. B. subtilis SU570 were grown in the same medium at 30 °C. In all cases, the cells were grown to an absorbance of 0.1–0.2 at 600 nm and then incubated either with the compounds or DMSO vehicle. Microscopy assays and cell measurement were performed as previously described.[31] MIC values were determined by a broth macrodilution method.[51] MBC values were determined as the lowest concentration of inhibitor at which there was a 99.9% reduction in colony-forming units/mL compared to the inoculum. To construct a S. aureus strain expressing FtsZ-mCherry, the plasmid pCN-ftsZmch[9] was electroporated into RN4220 and 0.1 μM cadmium chloride (Sigma-Aldrich) was used to induce the expression of the construct under the control of the Pcad promoter.

[2] = tested on: Staphylococcus epidermidis; experiment: Minimal growth inhibitory concentration, S. epidermidis; type: cell-based
Experimental: as §1

S. aureus Mu50 [3] = experiment: Minimal division inhibitory concentration, S. aureus Mu50; type: cell-based; conditions: Staphylococcus aureus, MU50, read-out: MDC S. aureus Mu50
Experimental: as §1

[4] = Solubility in HEPES buffer with 2% DMSO, spectrophotometric; type: physicochemical; conditions: HEPES buffer containing 2% DMSO, 25 °C, aqueous buffer, kinetic from dmso stock; HEPES buffer pH 6.8 containing 2% DMSO
Experimental: 3.2. Solubility of Compounds. Stock solutions of compounds were prepared in
DMSO (spectroscopic grade, Merck) a nd stored at -20 °C. Compound solubility in 50
mM HEPES-KOH, 50 mM KCl, 1 mM EDTA, pH 6.8 (HEPES buffer) containing 2%
DMSO was determined spectrophotometrically, monitoring the linear correlation
between the absorbance and the compound concentration and the absence of light
scattering. The solutions were optionally centrifuged at 100000 rpm for 20 min at 25 °C
in a TLA100 rotor with a Beckman Optima Max -XP ultracentrifuge.

S. aureus Mu50 [5] = experiment: Minimal growth inhibitory concentration (broth macrodilution), S. aureus Mu50; type: cell-based, Staphylococcus aureus; conditions: Staphylococcus aureus, MU50, read-out: MIC S. aureus Mu50
Experimental: as §1

B. subtilis [6] = experiment: Minimal growth inhibitory concentration (broth macrodilution), B. subtilis; type: cell-based, Bacillus subtilis; conditions: Bacillus subtilis, read-out: MIC B. subtilis
Experimental: as §1

B. subtilis [7] = experiment: Minimal division inhibitory concentration and cell division phenotype, B. subtilis; type: cell-based, Bacillus subtilis; conditions: Bacillus subtilis, read-out: MDC B. subtilis
Experimental: as §1

[8] = tested on: Staphylococcus haemolyticus; experiment: Minimal growth inhibitory concentration, S. haemolyticus; type: cell-based
Experimental: as §1

[9] = target: T1, stabilized polymers of FtsZ from B. subtilis (Bacillus subtilis, UniProt P17865); experiment: Competition assay: displacement of probe (R)-5 from stabilized BsFtsZ-GMPCPP polymers; type: binding; conditions: for Kd: stabilized polymers of FtsZ from B. subtilis, probe (R)-5, mean ± SEM, read-out: KD
T1 construct: made in house
T1 sequence (P17865 whole entry): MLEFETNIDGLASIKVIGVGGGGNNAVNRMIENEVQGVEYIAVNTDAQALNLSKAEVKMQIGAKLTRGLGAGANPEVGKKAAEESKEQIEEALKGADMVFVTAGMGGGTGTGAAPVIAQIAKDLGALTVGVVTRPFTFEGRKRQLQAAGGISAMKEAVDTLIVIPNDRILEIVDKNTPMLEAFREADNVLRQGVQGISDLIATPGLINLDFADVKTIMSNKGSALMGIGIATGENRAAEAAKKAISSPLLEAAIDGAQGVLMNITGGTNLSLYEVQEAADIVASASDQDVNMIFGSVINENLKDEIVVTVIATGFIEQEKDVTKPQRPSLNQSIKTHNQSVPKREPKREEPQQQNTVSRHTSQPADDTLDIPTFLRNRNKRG
Experimental: (§2) FtsZ (10–15 μM) was assembled in HEPES buffer, 10 mM MgCl2, 50 μM GMPCPP at 25 °C for 10 min, and then 0.15% (v/v) glutaraldehyde[36] (distilled grade for microscopy, TAAB Laboratories, U.K.) was added to the solution that was incubated at 25 °C for 10 min more. (This was the minimal glutaraldehyde concentration determined to stabilize FtsZ polymers specifically binding probe 1.) The remains of the cross-linking agent were quenched by adding 60 mM NaBH4, the sample was incubated on ice for 10 min and degassed.[36] Cross-linked polymers were centrifuged for 10 min at 8200g (5000 rpm) and 4 °C in 15 mL Falcon tubes employing a Rotina 380R (Hettich) centrifuge, the supernatant was removed and the pellet was resuspended in the same volume of HEPES buffer, 10 mM MgCl2, containing 5 μM GMPCPP. Fixed FtsZ polymers were active in binding assays after more than 2 days at 4 °C; they could also be frozen in liquid nitrogen with a small loss of binding capacity. […] Cross-linked polymers of SaFtsZ were similarly prepared.
(§3) Competition assays were performed by measuring, through the decrease in fluorescence anisotropy, the displacement of the fluorescent probes from stabilized FtsZ polymers. Increasing concentrations of competing ligands were added to the mixtures of cross-linked FtsZ polymers (10–15 μM) with probe 1 (3 μM), 7–8 μM FtsZ polymers with probe (S)-2 (3 μM), or 2–3 μM FtsZ polymers with (R)-5 (3 μM). HEPES buffer with 10 mM MgCl2 and 0.1 mM GMPCPP was employed, with a final volume of 0.5 mL, and the anisotropy measured at 25 °C. Under these conditions, the initial fraction of the probe bound was between 0.4 and 0.5. The fraction of the probe bound (Vb) was calculated [drawing 1] where rfree and rmax are the anisotropy values of the free and bound probes, respectively, and R is the ratio between the fluorescence intensities of the bound and free probe (Table S1). The binding data were plotted against the competing ligand concentration and fitted by competition equilibrium of the ligand and the probe for the same binding site. The resulting system of equations[50] was numerically solved using the Equigra v. 5.0 program,[33] which provided the best-fitted value of the competitor binding constant.

S. aureus = experiment: Minimal bactericidal concentration; type: cell-based; conditions: Staphylococcus aureus; 99.9% reduction in colony-forming units/mL
Experimental: as §1

MTT cytotoxicity assay = type: cell-based; conditions: human, IMR90 lung fibroblast cells, relative to vehicle; for viability at 100 µM: IMR90, 100 µM
Experimental: The sensitivity of the IMR90 cell line to compounds was tested through a standard 3-(4,5-dimethylthiazol-2-yl)-2,5-diphenyltetrazolium bromide (MTT) assay.[52] The results were reported as the viability percentage of the tested compound relative to vehicle (DMSO), obtained from two or three independent experiments performed in triplicate.

B. subtilis 168 = experiment: Cell length of B. subtilis 168 incubated with FtsZ inhibitors; type: cell-based, Bacillus subtilis; set-up: unit of the concentration uncertain; unit not given here; conditions: B. subtilis 168, 3 h
Experimental: Figure 4 Fluorescence anisotropy screen for FtsZ allosteric inhibitors combined with cell-based methods. (A) Screen for FtsZ inhibitors employing the fluorescence anisotropy of probe (S)-2 (3 μM) and stabilized FtsZ-GMPCPP polymers (8 μM binding sites). […] Control values with the corresponding concentrations of dimethyl sulfoxide (DMSO) vehicle (2% void and gray circles; 4%, black circle) are also shown. […] Raw data plots (n ≥ 30) are shown with the mean values marked (statistics in Table S2). The cells were incubated for 3 h with each compound, and cell lengths were measured. (D) Representative phase-contrast images of cells after 3 h with 7 or 9 (0.75 mM each). (E) Cellular localization of FtsZ-GFP in B. subtilis SU570 following growth for 1.5 h in the absence (inset) and presence of 7 (0.2 mM). Bars, 10 μm.
as §1, with “MBC values were determined as the lowest concentration of inhibitor at which there was a 99.9% reduction in colony-forming units/mL compared to the inoculum.” left out, “promoter. […]” for “promoter.”

[10] = target: T2, stabilized SaFtsZ polymers (Staphylococcus aureus, UniProt P0A031); experiment: Competition assay with stabilized SaFtsZ polymers; type: binding; conditions: read-out: KD (in parenthesis) (converted)
T2 construct: Full-length S. aureus FtsZ (SaFtsZ); made in house
T2 sequence (P0A031 whole entry): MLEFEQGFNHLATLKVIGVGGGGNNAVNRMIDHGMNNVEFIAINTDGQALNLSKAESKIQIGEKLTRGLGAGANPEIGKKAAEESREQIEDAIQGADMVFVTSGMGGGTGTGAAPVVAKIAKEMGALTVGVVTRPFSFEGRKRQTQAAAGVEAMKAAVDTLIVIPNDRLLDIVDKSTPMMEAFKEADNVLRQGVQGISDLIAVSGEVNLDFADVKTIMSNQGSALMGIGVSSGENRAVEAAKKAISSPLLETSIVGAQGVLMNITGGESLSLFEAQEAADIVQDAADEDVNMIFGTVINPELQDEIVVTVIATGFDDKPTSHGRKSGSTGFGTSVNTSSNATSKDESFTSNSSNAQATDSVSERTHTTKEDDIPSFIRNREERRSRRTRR
Experimental: Full-length S. aureus FtsZ (SaFtsZ) and the truncated protein SaFtsZ(12–315) were purified as described.[34] SaFtsZ was assembled in 50 mM MES, 50 mM KCl, 1 mM EDTA, pH 6.5 plus 10 mM MgCl2, and 0.1 mM GMPCPP.
as §2, §3

[11] = target: T3, stabilized FtsZ-GMPCPP polymers (BsFtsZ) (Bacillus subtilis, UniProt P17865); experiment: Competition assay: displacement of probe (S)-2 from stabilized FtsZ-GMPCPP polymers; type: binding; conditions: KD, (S)-2 3 μM, 8 μM binding sites
T3 construct: made in house
T3 sequence (P17865 whole entry): as the sequence (P17865 whole entry) above
Experimental: as §2, §3

Structure (SMILES)	MIC [1] [µM]	MIC [2] [µM]	minimal effective concentration (S. aureus Mu50 [3]) [µM]	solubility [4] [µM]	MIC (S. aureus Mu50 [5]) [µM]	MIC (B. subtilis [6]) [µM]	minimal effective concentration (B. subtilis [7]) [µM]	MIC [8] [µM]	Kd [9] [µM]	MBC (S. aureus) [µM]	viability at 25 µM (MTT cytotoxicity assay; IMR90, 25 µM) [%]	length (B. subtilis 168; 1 (unit uncertain) as printed)	Kd [10] [µM]	length (B. subtilis 168; 10 (unit uncertain) as printed)	fold weaker affinity and MDC than the (R)-enantiomer [9]	viability at 100 µM (MTT cytotoxicity assay) [%]	viability at 50 µM (MTT cytotoxicity assay; IMR90, 50 µM) [%]	length (B. subtilis 168; 2.5 (unit uncertain) as printed)	length (B. subtilis 168; 5 (unit uncertain) as printed)	Kd [11] [µM]
CCCC(COc1ccc(F)c(C(N)=O)c1F)Nc1cccc(C(F)(F)F)c1 (racemic) [rac-26, 2,6-Difluoro-3-[(2-{[3-(trifluoromethyl)phenyl]amino}pentyl)oxy]benzamide]	100 (≈ 40.2 µg/mL)	50 (≈ 20.1 µg/mL)	25	50 (≈ 20.1 µg/mL)	50 (≈ 20.1 µg/mL)	5 (≈ 2.01 µg/mL)	2.5	50 (≈ 20.1 µg/mL)	1.1 ± 0.1											
CCC[C@H](COc1ccc(F)c(C(N)=O)c1F)Nc1cccc(C(F)(F)F)c1 [(R)-26]	25 (≈ 10.1 µg/mL)	25 (≈ 10.1 µg/mL)	10	100 (≈ 40.2 µg/mL)	25 (≈ 10.1 µg/mL)	2.5 (≈ 1.01 µg/mL)	1	25 (≈ 10.1 µg/mL)	0.2 ± 0.1	25 (≈ 10.1 µg/mL)	100 ± 1	17.6 ±0.8	< 0.1							
CCC[C@@H](COc1ccc(F)c(C(N)=O)c1F)Nc1cccc(C(F)(F)F)c1 [(S)-26]			100	100 (≈ 40.2 µg/mL)	100 (≈ 40.2 µg/mL)	50 (≈ 20.1 µg/mL)	> 10		3.8 ± 0.2				7	4.9 ± 0.2	10–20 fold					
NC(=O)c1c(F)ccc(OCc2cccc(Cl)c2)c1F [Compound 18, 3-[(3-Chlorobenzyl)oxy]-2,6-difluorobenzamide]			50	≥ 100	100 (≈ 29.8 µg/mL)	25 (≈ 7.44 µg/mL)	10		1.3 ± 0.1	100 (≈ 29.8 µg/mL)						90 ± 7				
NC(=O)c1c(F)ccc(OCc2cccc(C(F)(F)F)c2)c1F [Compound 20, 2,6-Difluoro-3-{[3-(trifluoromethyl)benzyl]oxy}benzamide]	25 (≈ 8.28 µg/mL)	25 (≈ 8.28 µg/mL)	50	50 (≈ 16.6 µg/mL)	50 (≈ 16.6 µg/mL)	25 (≈ 8.28 µg/mL)	10	25 (≈ 8.28 µg/mL)	0.7 ± 0.2	100 (≈ 33.1 µg/mL)			0.7 ± 0.2				84 ± 5			
NC(=O)c1c(F)ccc(OCCNc2cccc(C(F)(F)F)c2)c1F [Compound 25, 2,6-Difluoro-3-(2-{[3-(trifluoromethyl)phenyl]amino}ethoxy)benzamide]			50	100 (≈ 36 µg/mL)	100 (≈ 36 µg/mL)	10 (≈ 3.6 µg/mL)	5		1.9 ± 0.2	100 (≈ 36 µg/mL)			0.3			88 ± 1		4.8 ± 0.1	27.4 ±0.9	
NC(=O)c1c(F)ccc(OCc2nc3cc(Cl)cnc3s2)c1F [PC190723, reference compound]			1	10 (≈ 3.56 µg/mL)	5 (≈ 1.78 µg/mL)	5 (≈ 1.78 µg/mL)	2.5		< 0.1	5 (≈ 1.78 µg/mL)			< 0.1							< 0.1

Reference: PMC8478281, “Targeting the FtsZ Allosteric Binding Site with a Novel Fluorescence Polarization Screen, Cytological and Structural Approaches for Antibacterial Discovery” (Journal of Medicinal Chemistry, 2021)
